System: 931267-113-T-J1-PDC multicell spheroid viability
Assay: Anticancer human tumor 931267-113-T-J1-PDC patient-derived colon adenocarcinoma cell line growth inhibition [PI3K]
Settings: for IC50: curve of first compound; for viability, T/C: stronger effect = lower value; active = viability on the fitted dose curve at most 10% of control; inactive = the rest
Outline: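 Tumor cells were combined with HUVEC and MSCs into spheroids, then dosed with PI3K-inhibitor combinations over half-log ranges capped near clinical Cmax or 10 microM.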

[1] = second compound 0.00316 µM, first compound 0.0316 µM
[2] = second compound 0.00316 µM, first compound 0.1 µM
[3] = second compound 0.00316 µM, first compound 0.316 µM
[4] = second compound 0.00316 µM, first compound 1 µM
[5] = second compound 0.00316 µM, first compound 3.16 µM
[6] = second compound 0.00316 µM, first compound 10 µM
[7] = second compound 0.01 µM, first compound 0.0316 µM
[8] = second compound 0.01 µM, first compound 0.1 µM
[9] = second compound 0.01 µM, first compound 0.316 µM
[10] = second compound 0.01 µM, first compound 1 µM
[11] = second compound 0.01 µM, first compound 3.16 µM
[12] = second compound 0.01 µM, first compound 10 µM
[13] = second compound 0.0316 µM, first compound 0.0316 µM
[14] = second compound 0.0316 µM, first compound 0.1 µM
[15] = second compound 0.0316 µM, first compound 0.316 µM
[16] = second compound 0.0316 µM, first compound 1 µM
[17] = second compound 0.0316 µM, first compound 3.16 µM
[18] = second compound 0.0316 µM, first compound 10 µM
[19] = second compound 0.1 µM, first compound 0.0316 µM
[20] = second compound 0.1 µM, first compound 0.1 µM
[21] = second compound 0.1 µM, first compound 0.316 µM
[22] = second compound 0.1 µM, first compound 1 µM
[23] = second compound 0.1 µM, first compound 3.16 µM
[24] = second compound 0.1 µM, first compound 10 µM
[25] = second compound 0.316 µM, first compound 0.0316 µM
[26] = second compound 0.316 µM, first compound 0.1 µM
[27] = second compound 0.316 µM, first compound 0.316 µM
[28] = second compound 0.316 µM, first compound 1 µM
[29] = second compound 0.316 µM, first compound 3.16 µM
[30] = second compound 0.316 µM, first compound 10 µM
[31] = second compound 1 µM, first compound 0.0316 µM
[32] = second compound 1 µM, first compound 0.1 µM
[33] = second compound 1 µM, first compound 0.316 µM
[34] = second compound 1 µM, first compound 1 µM
[35] = second compound 1 µM, first compound 3.16 µM
[36] = second compound 1 µM, first compound 10 µM
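Also: viability read 7 days after compound addition.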

C#Cc1c(F)ccc2cc(O)cc(-c3ncc4c(N5CC6CCC(C5)N6)nc(OCC56CCCN5CC(F)C6)nc4c3F)c12 (centres undefined) + COc1c(OCCCN2CCOCC2)ccc2c3n(c(=NC(=O)c4cnc(N)nc4)nc12)CCN3
37.8 nM: IC50 (second compound 0.1 µM)
inactive: viability, T/C [1] 78.6% | viability, T/C [2] 67.9% | viability, T/C [3] 51.9% | viability, T/C [4] 38% | viability, T/C [5] 24.8% | viability, T/C [6] 17.2% | viability, T/C [7] 84.7% | viability, T/C [8] 70.5% | viability, T/C [9] 39.2% | viability, T/C [10] 32.4% | viability, T/C [11] 21.2% | viability, T/C [12] 15.9% | viability, T/C [13] 62.3% | viability, T/C [14] 52.1% | viability, T/C [15] 30.2% | viability, T/C [16] 23.8% | viability, T/C [17] 21.4% | viability, T/C [18] 11% | viability, T/C [19] 54% | viability, T/C [20] 34.4% | viability, T/C [21] 25.5% | viability, T/C [22] 19% | viability, T/C [23] 13.3% | viability, T/C [25] 36.4% | viability, T/C [26] 26.7% | viability, T/C [27] 17.1% | viability, T/C [28] 10.5% | viability, T/C [31] 24.3% | viability, T/C [32] 20.9% | viability, T/C [33] 11.7%
93.2 nM: IC50 (second compound 0.0316 µM)
active: viability, T/C [24] 6.82% | viability, T/C [29] 7.67% | viability, T/C [30] 4.44% | viability, T/C [34] 8.76% | viability, T/C [35] 5.6% | viability, T/C [36] 3.48%
238 nM: IC50 (second compound 0.01 µM)
384 nM: IC50 (second compound 0.00316 µM)
< 31.6 nM: IC50 (second compound 0.316 µM) | IC50 (second compound 1 µM)

CC(Cn1ccc(-c2ccc(C#N)c(Cl)c2)n1)NC(=O)c1cc(C(C)O)[nH]n1 (centres undefined) + COc1c(OCCCN2CCOCC2)ccc2c3n(c(=NC(=O)c4cnc(N)nc4)nc12)CCN3
< 31.6 nM: IC50 (second compound 0.316 µM) | IC50 (second compound 1 µM)
inactive: viability, T/C [1] 95.4% | viability, T/C [2] 96.7% | viability, T/C [3] 104% | viability, T/C [4] 99.4% | viability, T/C [5] 99.8% | viability, T/C [6] 104% | viability, T/C [7] 89.7% | viability, T/C [8] 102% | viability, T/C [9] 97.8% | viability, T/C [10] 100% | viability, T/C [11] 92.5% | viability, T/C [12] 85.9% | viability, T/C [13] 91.8% | viability, T/C [14] 96.4% | viability, T/C [15] 78.6% | viability, T/C [16] 82.5% | viability, T/C [17] 78.4% | viability, T/C [18] 70.5% | viability, T/C [19] 68.8% | viability, T/C [20] 72.5% | viability, T/C [21] 64.9% | viability, T/C [22] 65.4% | viability, T/C [23] 65.3% | viability, T/C [24] 63.1% | viability, T/C [25] 47.5% | viability, T/C [26] 44.1% | viability, T/C [27] 45.3% | viability, T/C [28] 42.4% | viability, T/C [29] 47.7% | viability, T/C [30] 37.9% | viability, T/C [31] 32.5% | viability, T/C [32] 34.4% | viability, T/C [33] 30.9% | viability, T/C [34] 32.5% | viability, T/C [35] 34.5% | viability, T/C [36] 29.5%
> 10000 nM: IC50 (second compound 0.00316 µM) | IC50 (second compound 0.01 µM) | IC50 (second compound 0.0316 µM) | IC50 (second compound 0.1 µM)

— PubChem BioAssay AID1963970 (Molecular Pharmacology Branch, DTP, NCI, 2024)
